We go through three compounds from patent US20250197372A1 (priority 2020, published 2025).

Holding throughout (type): biochemical
For experiment [1], the target named is T1, recombinant human GBA (beta-glucocerebrosidase) (Homo sapiens, UniProt P04062).
T1 sequence (P04062 40-536): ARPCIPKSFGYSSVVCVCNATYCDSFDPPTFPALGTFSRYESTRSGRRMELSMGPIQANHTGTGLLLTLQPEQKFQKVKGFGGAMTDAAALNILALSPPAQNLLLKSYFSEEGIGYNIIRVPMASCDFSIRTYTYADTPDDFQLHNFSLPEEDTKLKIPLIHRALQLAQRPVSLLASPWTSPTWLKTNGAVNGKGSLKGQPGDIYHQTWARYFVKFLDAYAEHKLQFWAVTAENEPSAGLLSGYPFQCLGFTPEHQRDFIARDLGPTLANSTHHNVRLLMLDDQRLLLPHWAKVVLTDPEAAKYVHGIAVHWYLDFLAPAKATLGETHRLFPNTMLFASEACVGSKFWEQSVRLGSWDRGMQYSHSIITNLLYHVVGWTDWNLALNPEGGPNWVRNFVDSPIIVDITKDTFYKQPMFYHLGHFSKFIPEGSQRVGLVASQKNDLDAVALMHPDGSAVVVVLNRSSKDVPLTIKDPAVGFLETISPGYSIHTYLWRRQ
The experiment can be described thus: Beta-glucocerebrosidase (GBA, glucosylceramidase) assay (4-methylumbelliferyl-beta-D-pyranoside substrate, fluorescence). An outline of the steps: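 Recombinant human GBA preincubated with compound dilutions 60 min at 37 °C, then 4-methylumbelliferyl-beta-D-pyranoside added for 60 min at 37 °C. Stopped at pH 10 (glycine/NaOH); fluorescence ex 365/em 440 nm. IC50 from 4-PL fit of inhibition relative to untreated enzyme.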

Experiment [2] has as its target rat maltase (partially purified alpha-glucosidase from intestinal rat powder). Briefly: Intestinal alpha-glucosidase assay, maltose substrate (Glucose GO Kit). An outline of the steps: (§1)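 Rat intestinal enzyme prep + test cpd dilutions, 60 min 37 °C; add maltose (maltase) or sucrose (sucrase), 30 min 37 °C; stop 90 °C 5 min. Glucose readout (glucose oxidase kit). IC50 from 4-PL fit of % inhibition vs conc.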

Experiment [3] deals with rat sucrase (partially purified alpha-glucosidase from intestinal rat powder) (Rattus norvegicus, UniProt P23739). The experiment can be described thus: Intestinal alpha-glucosidase assay, sucrose substrate (Glucose GO Kit). The procedure, abridged: as §1
rat sucrase (partially purified alpha-glucosidase from intestinal rat powder), sequence (P23739 whole entry): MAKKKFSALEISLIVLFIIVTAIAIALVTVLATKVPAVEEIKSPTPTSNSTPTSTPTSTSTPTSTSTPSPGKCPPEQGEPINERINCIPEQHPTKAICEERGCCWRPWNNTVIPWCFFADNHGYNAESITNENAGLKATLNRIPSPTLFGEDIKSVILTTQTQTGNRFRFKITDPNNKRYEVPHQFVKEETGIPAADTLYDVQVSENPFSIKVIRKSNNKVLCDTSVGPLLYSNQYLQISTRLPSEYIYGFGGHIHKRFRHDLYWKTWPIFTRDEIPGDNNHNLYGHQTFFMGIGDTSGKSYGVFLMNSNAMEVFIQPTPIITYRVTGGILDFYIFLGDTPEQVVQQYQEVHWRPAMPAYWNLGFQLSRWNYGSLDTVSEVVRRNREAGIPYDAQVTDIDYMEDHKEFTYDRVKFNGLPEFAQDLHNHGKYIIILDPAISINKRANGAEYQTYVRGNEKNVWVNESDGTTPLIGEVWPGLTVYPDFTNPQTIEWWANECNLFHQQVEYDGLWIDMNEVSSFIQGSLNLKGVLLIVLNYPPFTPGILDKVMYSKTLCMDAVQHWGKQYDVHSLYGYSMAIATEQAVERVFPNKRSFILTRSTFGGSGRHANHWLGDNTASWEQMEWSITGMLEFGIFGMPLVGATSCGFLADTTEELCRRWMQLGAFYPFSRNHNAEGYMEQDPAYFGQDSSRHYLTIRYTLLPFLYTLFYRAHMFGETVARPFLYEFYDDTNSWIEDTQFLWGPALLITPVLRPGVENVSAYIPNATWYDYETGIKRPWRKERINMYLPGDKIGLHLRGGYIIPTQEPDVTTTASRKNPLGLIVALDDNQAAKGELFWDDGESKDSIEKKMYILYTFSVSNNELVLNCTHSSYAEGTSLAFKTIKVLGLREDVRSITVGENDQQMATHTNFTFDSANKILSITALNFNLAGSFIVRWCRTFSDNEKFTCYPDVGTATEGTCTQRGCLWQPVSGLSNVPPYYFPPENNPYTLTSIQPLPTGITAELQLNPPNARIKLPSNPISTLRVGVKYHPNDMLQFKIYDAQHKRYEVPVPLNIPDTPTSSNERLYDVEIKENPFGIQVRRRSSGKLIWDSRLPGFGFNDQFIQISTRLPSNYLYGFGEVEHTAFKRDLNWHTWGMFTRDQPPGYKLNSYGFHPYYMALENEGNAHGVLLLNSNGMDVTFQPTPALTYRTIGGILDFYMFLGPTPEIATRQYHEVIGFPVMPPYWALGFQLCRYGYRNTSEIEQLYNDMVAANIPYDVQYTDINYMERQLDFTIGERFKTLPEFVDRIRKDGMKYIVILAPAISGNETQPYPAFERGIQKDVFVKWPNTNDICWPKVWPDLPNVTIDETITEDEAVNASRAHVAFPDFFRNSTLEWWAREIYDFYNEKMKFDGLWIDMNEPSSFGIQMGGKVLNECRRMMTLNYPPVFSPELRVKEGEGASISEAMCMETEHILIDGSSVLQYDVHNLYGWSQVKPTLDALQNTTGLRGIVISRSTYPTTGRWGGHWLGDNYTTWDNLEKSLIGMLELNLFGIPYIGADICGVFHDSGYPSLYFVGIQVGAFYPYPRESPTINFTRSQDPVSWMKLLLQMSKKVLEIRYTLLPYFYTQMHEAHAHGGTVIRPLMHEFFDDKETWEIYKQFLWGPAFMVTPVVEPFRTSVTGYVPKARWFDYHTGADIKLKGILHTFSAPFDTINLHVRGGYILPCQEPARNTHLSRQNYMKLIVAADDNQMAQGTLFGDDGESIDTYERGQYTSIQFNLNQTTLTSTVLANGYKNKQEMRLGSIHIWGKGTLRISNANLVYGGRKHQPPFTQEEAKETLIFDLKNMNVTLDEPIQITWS
The target in experiment [4] is T2, recombinant alpha-glucosidase II (murine full-length glucosidase II, alpha and beta subunits, Glu 2) (Mus musculus, UniProt Q8BHN3).
T2 construct: made in house; host or cells: HEK-293T cells transduced with BacMam viruses (75% alpha, 25% beta); protein harvested from culture supernatant
T2 sequence (O08795 15-521): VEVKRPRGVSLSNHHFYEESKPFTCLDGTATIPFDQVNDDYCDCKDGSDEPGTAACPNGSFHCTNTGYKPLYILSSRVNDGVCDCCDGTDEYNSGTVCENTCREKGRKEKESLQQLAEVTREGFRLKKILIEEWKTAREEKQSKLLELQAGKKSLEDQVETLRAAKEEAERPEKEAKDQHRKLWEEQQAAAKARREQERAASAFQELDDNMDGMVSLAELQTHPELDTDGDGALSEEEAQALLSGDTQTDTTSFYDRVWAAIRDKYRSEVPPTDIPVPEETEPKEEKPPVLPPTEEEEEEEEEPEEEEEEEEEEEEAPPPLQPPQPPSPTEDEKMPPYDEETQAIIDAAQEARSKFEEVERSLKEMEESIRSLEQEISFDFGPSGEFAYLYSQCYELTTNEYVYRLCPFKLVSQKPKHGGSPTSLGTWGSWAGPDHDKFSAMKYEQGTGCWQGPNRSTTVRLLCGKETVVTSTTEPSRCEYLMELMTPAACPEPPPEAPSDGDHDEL
T2 sequence (Q8BHN3 33-944): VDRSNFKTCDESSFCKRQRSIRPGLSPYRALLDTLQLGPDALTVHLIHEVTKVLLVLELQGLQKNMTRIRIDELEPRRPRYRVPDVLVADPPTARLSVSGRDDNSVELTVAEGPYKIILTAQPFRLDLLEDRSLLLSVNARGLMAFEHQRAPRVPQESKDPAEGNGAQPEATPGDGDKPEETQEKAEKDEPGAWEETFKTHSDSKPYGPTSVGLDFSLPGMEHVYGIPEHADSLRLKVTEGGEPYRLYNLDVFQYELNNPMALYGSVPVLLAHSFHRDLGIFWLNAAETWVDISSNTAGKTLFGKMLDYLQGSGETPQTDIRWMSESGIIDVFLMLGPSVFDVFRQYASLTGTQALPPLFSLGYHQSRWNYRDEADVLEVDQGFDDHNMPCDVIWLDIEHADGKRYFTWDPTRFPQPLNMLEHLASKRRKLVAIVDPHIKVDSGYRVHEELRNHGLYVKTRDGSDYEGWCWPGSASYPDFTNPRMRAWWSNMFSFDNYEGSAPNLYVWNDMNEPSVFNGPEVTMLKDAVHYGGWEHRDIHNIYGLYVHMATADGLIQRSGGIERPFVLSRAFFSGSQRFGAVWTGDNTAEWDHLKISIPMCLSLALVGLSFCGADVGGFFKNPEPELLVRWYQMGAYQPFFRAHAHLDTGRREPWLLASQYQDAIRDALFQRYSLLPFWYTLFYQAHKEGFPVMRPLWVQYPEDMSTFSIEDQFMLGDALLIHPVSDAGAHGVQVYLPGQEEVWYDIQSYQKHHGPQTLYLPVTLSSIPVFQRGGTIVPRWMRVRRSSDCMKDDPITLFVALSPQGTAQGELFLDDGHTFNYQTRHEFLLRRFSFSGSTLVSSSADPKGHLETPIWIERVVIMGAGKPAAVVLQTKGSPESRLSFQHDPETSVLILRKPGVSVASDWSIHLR
Briefly: Alpha-glucosidase II assay (4-methylumbelliferyl-alpha-D-pyranoside substrate, fluorescence).

Experiment [5] addresses recombinant human GAA (acid alpha-glucosidase) (Homo sapiens, UniProt P10253). The experiment can be described thus: Acid alpha-glucosidase (GAA) assay (4-methylumbelliferyl-alpha-D-pyranoside substrate, fluorescence). The procedure, abridged:
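Recombinant human enzyme preincubated 60 min at 37 °C with compound dilutions, then 4-methylumbelliferyl-alpha-D-pyranoside substrate added for 20 min at 37 °C. Stopped with glycine/NaOH pH 10; methylumbelliferone fluorescence (ex 365, em 440 nm) versus untreated enzyme; IC50 by 4-PL fit.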

Setting [6] is: Glucosidase 2, read-out: Glu2 IC50.

Where two headings read alike, the source gives them in different places.

As to `Cc1cc(-c2ccco2)ccc1NCc1ccc(CN2C[C@H](O)[C@@H](O)[C@H](O)[C@H]2CO)cc1` [Compound 1324, (2R,3R,4R,5S)-1-{[4-({[4-(furan-2-yl)-2-methylphenyl]amino}methyl)phenyl]methyl}-2-(hydroxymethyl)piperidine-3,4,5-triol], the IC50 (as a rule, the concentration needed to halve the response being measured) in experiment [1] was 33700 nM; in experiment [2], < 1 nM; in experiment [3], < 1 nM; in experiment [4] (setting [6]), 318 nM; in experiment [5], 80 nM.
`Cc1cc(NCc2cccc(CN3C[C@H](O)[C@@H](O)[C@H](O)[C@H]3CO)n2)cc(-c2ccc[nH]2)c1` [Compound 1335, (2R,3R,4R,5S)-2-(hydroxymethyl)-1-{[6-({[3-methyl-5-(1H-pyrrol-2-yl)phenyl]amino}methyl)pyridin-2-yl]methyl}piperidine-3,4,5-triol]: the IC50 in experiment [1] is 21500 nM; in experiment [2], 231 nM; in experiment [3], 321 nM; in experiment [4], > 100000 nM; in experiment [5], 470 nM.
In the case of `Cc1nc2cc(-c3ncccn3)ccc2n1CCCCCCN1C[C@H](O)[C@@H](O)[C@H](O)[C@H]1CO` [Compound 1339, (2R,3R,4R,5S)-2-(hydroxymethyl)-1-{6-[2-methyl-5-(pyrimidin-2-yl)-1H-1,3-benzodiazol-1-yl]hexyl}piperidine-3,4,5-triol], the IC50 in experiment [1] worked out at 626 nM; in experiment [2], 14 nM; in experiment [3] it was 49 nM; in experiment [4] (setting [6]) it was 194 nM; in experiment [5] it was 240 nM.
